Experimental data taken from patent US20060069132A1, “Azolecarboxamide herbicides” (priority 2004, published 2006).

How the values were obtained:
[1] = system: blackgrass; assay: Test C postemergence herbicide test; format: in vivo, Alopecurus myosuroides
Procedure, shortened: (§1)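 Weeds and wheat were sprayed after emergence, at a height of 2 to 18 cm (1–4 leaves), and paddy barnyardgrass was flooded and treated at two leaves. Assessment took place 12–14 days later in the greenhouse on a 0-to-100 visual control scale. A dash means no result was obtained.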

[2] = system: canarygrass; assay: Test C postemergence herbicide test; format: in vivo, Phalaris minor
Procedure, shortened: as §1

[3] = system: green foxtail; assay: Test C postemergence herbicide test; format: in vivo, Setaria viridis
Procedure, shortened: as §1

[4] = system: Italian ryegrass; assay: Test C postemergence herbicide test; format: in vivo, Lolium multiflorum
Procedure, shortened: as §1

[5] = system: windgrass; assay: Test C postemergence herbicide test; format: in vivo, Apera spica-venti
Procedure, shortened: as §1

[6] = system: goosegrass; assay: Test E pre-/postemergence herbicide test; format: in vivo, Eleusine indica; conditions: Preemergence
Excerpt: (§2) Seeds of plant species selected from bipinnate beggarticks (Bidens bipinnata L.), hairy beggarticks (Bidens radiata Thuill.), bermudagrass (Cynodon dactylon (L.) Pers.), Surinam grass (Urochloa decumbens (Staph) R. D. Webster, previously named Brachiaria decumbens Stapf), large crabgrass (Digitaria sanguinalis (L.) Scop.), green foxtail (Setaria viridis (L.) P. Beauv.), goosegrass (Eleusine indica (L.) Gaertn.), johnsongrass (Sorghum halepense (L.) Pers.), kochia (Kochia scoparia (L.) Schrad.), pitted morningglory (Ipomoea lacunosa L.), purple nutsedge (Cyperus rotundus L.), common ragweed (Ambrosia elatior L.), mustard (Brassica nigra (L.) W. D. J. Koch), guineagrass (Panicum maximum Jacq.), dallisgrass (Paspalum dilatatum Poir.), barnyardgrass (Echinochloa crus-galli (L). P. Beauv.), southern sandbur (Cenchrus echinatus L.), common sowthistle (Sonchus oleraceous L.), prickly sida (Sida spinosa L.), Italian ryegrass (Lolium multiflorum Lam.), common purslane (Portulaca oleracea L.), broadleaf signalgrass (Brachiaria platyphylla (Griseb.) Nash), common groundsel (Senecio vulgaris L.), common chickweed (Stellaria media (L.) Vill/Cyr.), tropical spiderwort (Commelina benghalensis L.), annual bluegrass (Poa annua L.), downy bromegrass (Bromus tectorum L.), itchgrass (Rottboellia cochinchinensis (L.) L.f.), quackgrass (Elytrigia repens (L.) Nevski), Canada horseweed (Erigeron Canadensis L.), field bindweed (Convolvulus arvensis L.), spotted spurge (Euphorbia maculata L.), common mallow (Malva sylvestris (=s silvestris) L.), and Russian thistle (Salsola kali L. ssp. Ruthenica (Iljin) Soo) were planted and treated preemergence with test chemicals formulated in a non-phytotoxic solvent mixture which included a surfactant.
(§3) At the same time, plants selected from these weed species were treated with postemergence applications of some of the test chemicals formulated in the same manner. Plants ranged in height from 2 to 18 cm (1- to 4-leaf stage) for postemergence treatments. Treated plants and controls were maintained in a greenhouse for 12 to 14 days, after which time all species were compared to controls and visually evaluated. Plant response ratings, summarized in Table E, are based on a scale of 0 to 100 where 0 is no effect and 100 is complete control. A dash (-) response means no test result.

[7] = system: mustard; assay: Test E pre-/postemergence herbicide test; format: in vivo, Brassica nigra; conditions: Preemergence
Excerpt: as §2, §3

[8] = system: southern sandbur; assay: Test E pre-/postemergence herbicide test; format: in vivo, Cenchrus echinatus; conditions: Preemergence
Excerpt: as §2, §3

[9] = system: common sowthistle; assay: Test E pre-/postemergence herbicide test; format: in vivo, Sonchus oleraceous; conditions: Preemergence
Excerpt: as §2, §3

[10] = system: tropical spiderwort; assay: Test E pre-/postemergence herbicide test; format: in vivo, Commelina benghalensis; conditions: Preemergence
Excerpt: as §2, §3

[11] = system: annual bluegrass; assay: Test E pre-/postemergence herbicide test; format: in vivo, Poa annua; conditions: Preemergence
Excerpt: as §2, §3

[12] = system: itchgrass; assay: Test E pre-/postemergence herbicide test; format: in vivo, Rottboellia cochinchinensis; conditions: Preemergence
Excerpt: as §2, §3

[13] = postemergence, 125 g ai/ha, scale 0 to 100
[14] = postemergence, 31 g ai/ha, scale 0 to 100
[15] = postemergence, 62 g ai/ha, scale 0 to 100
[16] = Postemergence, 250 g ai/ha, scale 0 to 100, 0 no effect, 100 complete control
[17] = Postemergence, 500 g ai/ha, scale 0 to 100
[18] = Postemergence, 500 g ai/ha, scale 0 to 100, 0 no effect, 100 complete control
[19] = 250 g ai/ha, scale 0 (no effect) to 100 (complete control)
[20] = 500 g ai/ha, scale 0 (no effect) to 100 (complete control)

CCn1nc(C(C)(C)C)cc1C(=O)Nc1cccc(C(=O)NCC2CC2)c1 [Compound 62]
Blackgrass plant response rating ([1]; Postemergence, 250 g ai/ha, scale 0 to 100): 40 | Plant response rating, Blackgrass [1, 13]: 40 | Plant response rating, Blackgrass [1, 14]: 20 | Plant response rating, Blackgrass [1, 15]: 40 | Plant response rating, Canarygrass [2, 16]: 40 | Plant response rating, Canarygrass [2, 13]: 30 | Plant response rating, Canarygrass [2, 14]: 0 | Plant response rating, Canarygrass [2, 15]: 0 | Plant response rating, Foxtail, Green [3, 16]: 50 | Plant response rating, Foxtail, Green [3, 13]: 50 | Plant response rating, Foxtail, Green [3, 15]: 40 | Plant response rating, Ryegrass, Italian [4, 16]: 40 | Plant response rating, Ryegrass, Italian [4, 13]: 20 | Plant response rating, Ryegrass, Italian [4, 15]: 20 | Plant response rating, Windgrass [5, 16]: 50 | Plant response rating, Windgrass [5, 13]: 40 | Plant response rating, Windgrass [5, 15]: 30

CCn1nc(C(C)(C)C)cc1C(=O)Nc1cc(OC(F)(F)F)ccc1F [Compound 338]
Blackgrass plant response rating [1, 17]: 65 | Plant response rating, Blackgrass [1, 16]: 50 | Plant response rating, Blackgrass [1, 13]: 45 | Plant response rating, Blackgrass [1, 15]: 40 | Plant response rating, Canarygrass [2, 16]: 40 | Plant response rating, Canarygrass [2, 18]: 50 | Plant response rating, Canarygrass [2, 13]: 25 | Plant response rating, Canarygrass [2, 15]: 20 | Plant response rating, Foxtail, Green [3, 16]: 40 | Plant response rating, Foxtail, Green [3, 18]: 50 | Plant response rating, Foxtail, Green [3, 13]: 40 | Plant response rating, Foxtail, Green [3, 15]: 30 | Plant response rating, Ryegrass, Italian [4, 16]: 50 | Plant response rating, Ryegrass, Italian [4, 18]: 60 | Plant response rating, Ryegrass, Italian [4, 13]: 30 | Plant response rating, Ryegrass, Italian [4, 15]: 25 | Plant response rating, Windgrass [5, 13]: 15 | Plant response rating, Windgrass [5, 15]: 10

CCN1N=C(C(C)(C)C)CC1C(=O)Nc1cc(C(=O)N(C)C)ccc1F (stereo not shown) [Compound 268, N-[5-[(dimethylamino)carbonyl]-2-fluorophenyl]-3-(1,1-dimethylethyl)-1-ethyl-4,5-dihydro-1H-pyrazole-5-carboxamide]
Plant response rating, Blackgrass [1, 16]: 60 | Plant response rating, Blackgrass [1, 13]: 45 | Plant response rating, Blackgrass [1, 14]: 0 | Plant response rating, Blackgrass [1, 15]: 30 | Plant response rating, Canarygrass [2, 16]: 50 | Plant response rating, Canarygrass [2, 13]: 30 | Plant response rating, Canarygrass [2, 14]: 10 | Plant response rating, Canarygrass [2, 15]: 10 | Plant response rating, Foxtail, Green [3, 16]: 50 | Plant response rating, Foxtail, Green [3, 13]: 45 | Plant response rating, Foxtail, Green [3, 15]: 40 | Plant response rating, Ryegrass, Italian [4, 16]: 40 | Plant response rating, Ryegrass, Italian [4, 13]: 30 | Plant response rating, Ryegrass, Italian [4, 15]: 10 | Plant response rating, Windgrass [5, 16]: 100 | Plant response rating, Windgrass [5, 13]: 60 | Plant response rating, Windgrass [5, 15]: 30 | Plant response rating, Goosegrass ([6]; 62 g ai/ha, scale 0 to 100): 70 | Plant response rating, Goosegrass ([6]; 125 g ai/ha, scale 0 to 100): 80 | Plant response rating, Goosegrass [6, 19]: 95 | Plant response rating, Goosegrass [6, 20]: 95 | Plant response rating, Black Mustard ([7]; 62 g ai/ha, scale 0 to 100): 90 | Plant response rating, Black Mustard ([7]; 125 g ai/ha, scale 0 to 100): 100 | Plant response rating, Black Mustard [7, 19]: 100 | Plant response rating, Black Mustard [7, 20]: 100 | Plant response rating, Sandbur ([8]; 62 g ai/ha, scale 0 to 100): 10 | Plant response rating, Sandbur ([8]; 125 g ai/ha, scale 0 to 100): 70 | Plant response rating, Sandbur [8, 19]: 100 | Plant response rating, Sandbur [8, 20]: 100 | Plant response rating, Sowthistle ([9]; 62 g ai/ha, scale 0 to 100): 80 | Plant response rating, Sowthistle ([9]; 125 g ai/ha, scale 0 to 100): 100 | Plant response rating, Sowthistle [9, 19]: 100 | Plant response rating, Sowthistle [9, 20]: 100 | Plant response rating, Spiderwort ([10]; 125 g ai/ha, scale 0 to 100): 70 | Plant response rating, Spiderwort [10, 19]: 85 | Plant response rating, Spiderwort [10, 20]: 90 | Plant response rating, Bluegrass ([11]; 62 g ai/ha, scale 0 to 100): 80 | Plant response rating, Bluegrass ([11]; 125 g ai/ha, scale 0 to 100): 95 | Plant response rating, Bluegrass [11, 19]: 95 | Plant response rating, Bluegrass [11, 20]: 95 | Plant response rating, Itchgrass ([12]; 62 g ai/ha, scale 0 to 100): 50 | Plant response rating, Itchgrass ([12]; 125 g ai/ha, scale 0 to 100): 60 | Plant response rating, Itchgrass [12, 19]: 75 | Plant response rating, Itchgrass [12, 20]: 95

CCOC(=O)c1cccc(NC(=O)c2cc(C3(C)CC3)nn2CC)c1 [Compound 295]
Plant response rating, Blackgrass [1, 16]: 65 | Plant response rating, Blackgrass [1, 13]: 65 | Plant response rating, Blackgrass [1, 14]: 45 | Plant response rating, Blackgrass [1, 15]: 45 | Plant response rating, Canarygrass [2, 16]: 35 | Plant response rating, Canarygrass [2, 13]: 35 | Plant response rating, Canarygrass [2, 14]: 25 | Plant response rating, Canarygrass [2, 15]: 30 | Plant response rating, Foxtail, Green [3, 16]: 60 | Plant response rating, Foxtail, Green [3, 13]: 50 | Plant response rating, Foxtail, Green [3, 15]: 45 | Plant response rating, Ryegrass, Italian [4, 16]: 65 | Plant response rating, Ryegrass, Italian [4, 13]: 40 | Plant response rating, Ryegrass, Italian [4, 15]: 40 | Plant response rating, Windgrass [5, 16]: 65 | Plant response rating, Windgrass [5, 13]: 60 | Plant response rating, Windgrass [5, 15]: 50

CCn1nc(C2(C)CC2)cc1C(=O)Nc1cc(C(=O)N2CC=CC2)ccc1F [Compound 301]
Blackgrass plant response rating [1, 17]: 45 | Plant response rating, Blackgrass [1, 16]: 90 | Plant response rating, Blackgrass [1, 13]: 75 | Plant response rating, Blackgrass [1, 15]: 55 | Canarygrass plant response rating [2, 17]: 50 | Plant response rating, Canarygrass [2, 16]: 50 | Plant response rating, Canarygrass [2, 13]: 45 | Plant response rating, Canarygrass [2, 15]: 35 | Foxtail, Green plant response rating [3, 17]: 65 | Plant response rating, Foxtail, Green [3, 16]: 60 | Plant response rating, Foxtail, Green [3, 13]: 45 | Plant response rating, Foxtail, Green [3, 15]: 40 | Ryegrass, Italian plant response rating [4, 17]: 65 | Plant response rating, Ryegrass, Italian [4, 16]: 45 | Plant response rating, Ryegrass, Italian [4, 13]: 45 | Plant response rating, Ryegrass, Italian [4, 15]: 35 | Windgrass plant response rating [5, 17]: 40 | Plant response rating, Windgrass [5, 16]: 35 | Plant response rating, Windgrass [5, 13]: 35 | Plant response rating, Windgrass [5, 15]: 35

CCCCOc1cccc(NC(=O)c2cc(C(C)(C)C)nn2CC)c1 [Compound 137]
Blackgrass plant response rating [1, 17]: 60 | Plant response rating, Blackgrass [1, 16]: 40 | Plant response rating, Blackgrass [1, 13]: 40 | Plant response rating, Blackgrass [1, 15]: 40 | Canarygrass plant response rating [2, 17]: 40 | Plant response rating, Canarygrass [2, 16]: 40 | Plant response rating, Canarygrass [2, 13]: 30 | Plant response rating, Canarygrass [2, 15]: 20 | Foxtail, Green plant response rating [3, 17]: 50 | Plant response rating, Foxtail, Green [3, 16]: 50 | Plant response rating, Foxtail, Green [3, 13]: 50 | Plant response rating, Foxtail, Green [3, 15]: 30 | Ryegrass, Italian plant response rating [4, 17]: 60 | Plant response rating, Ryegrass, Italian [4, 16]: 40 | Plant response rating, Ryegrass, Italian [4, 13]: 40 | Plant response rating, Ryegrass, Italian [4, 15]: 20 | Windgrass plant response rating [5, 17]: 60 | Plant response rating, Windgrass [5, 16]: 50 | Plant response rating, Windgrass [5, 13]: 50 | Plant response rating, Windgrass [5, 15]: 30

CCn1nc(C(C)(C)C)cc1C(=O)Nc1cccc(OS(=O)(=O)CC)c1 [Compound 408]
Blackgrass plant response rating [1, 17]: 70 | Plant response rating, Blackgrass [1, 16]: 65 | Plant response rating, Blackgrass [1, 13]: 50 | Plant response rating, Blackgrass [1, 15]: 40 | Plant response rating, Canarygrass [2, 16]: 40 | Plant response rating, Canarygrass [2, 18]: 45 | Plant response rating, Canarygrass [2, 13]: 30 | Plant response rating, Canarygrass [2, 15]: 20 | Plant response rating, Foxtail, Green [3, 16]: 70 | Plant response rating, Foxtail, Green [3, 18]: 80 | Plant response rating, Foxtail, Green [3, 13]: 60 | Plant response rating, Foxtail, Green [3, 15]: 40 | Plant response rating, Ryegrass, Italian [4, 18]: 70 | Plant response rating, Ryegrass, Italian [4, 13]: 45 | Plant response rating, Ryegrass, Italian [4, 15]: 40 | Plant response rating, Windgrass [5, 18]: 65 | Plant response rating, Windgrass [5, 13]: 45 | Plant response rating, Windgrass [5, 15]: 40
